Experiments:
Format in all cases: in vivo
Cyperus esculentus = assay: Ex 2 pre-emergence, visual % damage; settings: kg/ha: Amicarbazone 1.5, Clomazone/Hexazinone 2.0, mixture 1.5 + 2.0
From the text: DINAMIC® (amicarbazone) and Discover (clomazone 400 g/kg+hexazinone 100 g/kg) alone or in combination were applied pre-emergence in this study. The formulations for DINAMIC® and Discover were 700 g active ingredient a.i./kg and 500 g active ingredient a.i/kg respectively.
The herbicidal effect was observed by comparing the extent of Cyperus esculentus treated with the compounds against that occurring in similar non-treated control. Herbicidal effect was visually assessed and recorded at 27, 43, 46, 60, 63, 77, 83, 97 and 124 days after treatment (DAT). Damage by the herbicidal compositions was evaluated with reference to a scale of 0% to 100% in comparison with untreated control. 0% means no damage and 100% means complete destruction of the plants.
The theoretical herbicidal effect index were calculated based on Colby and the values were indicated in bracket ( ) in Table 2-1. The herbicidal mixtures (amicarbazone+(clomazone/hexazinone)) exert a greater herbicidal action than expected according to Colby on the basis of the observed effects of the individual components when used alone. […] The underlined values in the table indicate that the observed weed killing is greater than calculated from the Colby formula and therefore indicates a synergistic weed killing effect or activity.

Poa annua = assay: Ex 5/7 greenhouse spray, bleaching/injury ratings
Description: Containers were watered as needed based on species and water usage. The greenhouse was heated to keep temperatures above 50° F. (10° C.) and ventilated as needed to keep temperatures below 100° F. (38° C.). Typical daytime temperatures in the greenhouse were 80-90° F. (27-32° C.) and nighttime temperatures were between 50-60° F. (10-16° C.). The soil employed was Promix BX potting soil. Overall moisture conditions were normal and the closest weather station was on-site. Conditions and equipment employed in this Example are tabulated below in Tables 5-1 and 5-2.
All containers were moved outdoors from the greenhouse and arranged in blocks by treatment for the herbicide applications. A single spray application was applied to each block containing four repetitions of each species for each treatment. Plants were then immediately returned to the greenhouse and irrigated with approximately ¼″ water 1-3 hrs after treatment with a hose end sprayer. Only the Poa plants were trimmed with scissors two days prior to treatment at a height of approximately 3 inches.
Transplanted tillering Kentucky Bluegrass was 5 to 6 months old, transplanted Poa annua was 5 to 6 months old. Tall fescue was seeded into the crabgrass pots. St. Augustine plants (Floratam and Saphire) were shipped from Port St. Lucie, Fla. Only two replicates of Saphire St. Augustine grass were used due to plant availability.
Referring to FIGS. 2A-B, 3A-C, 4A-C, and 5A-D, all ratings of injury or bleaching are based on a scale from 1 to 9. […] Any bleaching measurement 4 and above was considered unacceptable for desirable turf species. In injury measurements, 1 indicates no injury while 9 indicates a dead plant. Any injury measurement 4 and above was considered unacceptable for desirable turf species). Density correlates with percent cover where 1 indicates no grass while 9 indicates a full pot.
Replications employed include 4, Untreated treatments: 1, Design: Randomized Complete Block, Treatment units: US standard, Treated plot size Width: 4 feet, Treated plot size Length: 4 feet, Application volume: 50 gal/ac, Mix size: 0.5562 liters, Mix overage: 100%, Format definitions: G-All7.DEF, G-All7.FRM.
In evaluating synergism, the data from Example 5 above were converted to % of control. This was done based on the data provided on a 1-9 scale detailed in Example 5. Expected values were computed from the % of control data by the formula for expected control=[…], where A is the % of control value for herbicide A alone and B is the % of control value for herbicide B alone.

[1] = system: Croton glandulosus (CROTON); assay: Ex 4 pre-emergence, visual % damage; settings: kg/ha or L/ha: Amicarbazone 1.50, Gesapax 5.00, Karmex 5.00, Provence 0.20, Sencor 3.50, alone
Description: DINAMIC® (amicarbazone) in combination of various herbicides listed in Table 4-1 were tested for herbicidal activity.
The herbicidal effect was observed by comparing the extent of Croton glandulosus (CROTON) treated with the compounds against that occurring in similar non-treated control. Herbicidal effect was visually assessed and recorded at 14, 23, 36, 49, 65 and 77 days after treatment (DAT). Damage by the herbicidal compositions was evaluated with reference to a scale of 0% to 100% in comparison with untreated control. 0% means no damage and 100% means complete destruction of the plants. […] The theoretical herbicidal effect index were calculated based on Colby and the values were indicated in bracket (2). Some of the observed herbicidal effects were the same as the theoretical hervicidal effects, which indicate additive effects. The underlined values in the table indicate that the observed weed killing is greater than calculated from the Colby formula and therefore indicates a synergistic weed killing effect or activity.

[2] = rating 1, 0.022 lbs ai/A (0.5 oz/A)
[3] = rating 1, 0.13 lbs ai/A (3 oz/A)
[4] = rating 2, 0.022 lbs ai/A (0.5 oz/A)
[5] = rating 2, 0.13 lbs ai/A (3 oz/A)
[6] = rating 3, 0.022 lbs ai/A (0.5 oz/A)
[7] = rating 3, 0.13 lbs ai/A (3 oz/A)
[8] = rating 4, 0.022 lbs ai/A (0.5 oz/A)
[9] = rating 4, 0.13 lbs ai/A (3 oz/A)

Q: How did the percentage control (Cyperus esculentus; Trial 1, 43 DAT) turn out when CC(C)c1nn(C(=O)NC(C)(C)C)c(=O)n1N [Amicarbazone, 4-amino-5-isopropyl-2-(tert-butyl-aminocarbonyl)-2,4-dihydro-3H-1,2,4-triazol-3-one] was run?
A: 40%

Q: What about the percentage control (Cyperus esculentus; Trial 1, 63 DAT) of the same molecule?
A: 62%

Q: And the percentage control (Cyperus esculentus; Trial 1, 77 DAT)?
A: 65%

Q: And the percentage control (Cyperus esculentus; Trial 2, 27 DAT)?
A: 37%

Q: And the percentage control (Cyperus esculentus; Trial 2, 46 DAT)?
A: 53%

Q: And the percentage control (Cyperus esculentus; Trial 2, 60 DAT)?
A: 57%

Q: And the percentage control (Cyperus esculentus; Trial 2, 83 DAT)?
A: 68%

Q: And the percentage control (Cyperus esculentus; Trial 2, 97 DAT)?
A: 53%

Q: What about the percentage control (Cyperus esculentus; Trial 2, 124 DAT) of the same molecule?
A: 23%

Q: And the “control of annual bluegrass” value (Poa annua; high rate, by itself)?
A: reasonable control

Q: What about the Annual bluegrass bleaching (Poa annua; [2]) of the same molecule?
A: 100 % of control

Q: What about the Annual bluegrass injury (Poa annua; [2]) of the same molecule?
A: 104 % of control

Q: And the Annual bluegrass bleaching (Poa annua; [3])?
A: 100 % of control

Q: What about the Annual bluegrass injury (Poa annua; [3]) of the same molecule?
A: 71 % of control

Q: And the Annual bluegrass bleaching (Poa annua; [4])?
A: 100 % of control

Q: And the Annual bluegrass injury (Poa annua; [4])?
A: 104 % of control

Q: And the Annual bluegrass bleaching (Poa annua; [5])?
A: 100 % of control

Q: What about the Annual bluegrass injury (Poa annua; [5]) of the same molecule?
A: 61 % of control

Q: And the Annual bluegrass bleaching (Poa annua; [6])?
A: 100 % of control

Q: And the Annual bluegrass injury (Poa annua; [6])?
A: 108 % of control

Q: And the Annual bluegrass bleaching (Poa annua; [7])?
A: 91 % of control

Q: What about the Annual bluegrass injury (Poa annua; [7]) of the same molecule?
A: 67 % of control

Q: What about the Annual bluegrass bleaching (Poa annua; rating 4/2, 0.022 lbs ai/A (0.5 oz/A)) of the same molecule?
A: 100 % of control

Q: What about the Annual bluegrass bleaching (Poa annua; rating 4/2, 0.13 lbs ai/A (3 oz/A)) of the same molecule?
A: 88 % of control

Q: What about the Annual bluegrass bleaching (Poa annua; [8]) of the same molecule?
A: 107 % of control

Q: And the Annual bluegrass injury (Poa annua; [8])?
A: 96 % of control

Q: What about the Annual bluegrass bleaching (Poa annua; [9]) of the same molecule?
A: 94 % of control

Q: What about the Annual bluegrass injury (Poa annua; [9]) of the same molecule?
A: 53 % of control

Q: What about the Annual bluegrass injury (Poa annua; rating 5, 0.022 lbs ai/A (0.5 oz/A)) of the same molecule?
A: 90 % of control

Q: What about the Annual bluegrass injury (Poa annua; rating 5, 0.13 lbs ai/A (3 oz/A)) of the same molecule?
A: 52 % of control

Q: What about the Annual bluegrass injury (Poa annua; rating 6, 0.022 lbs ai/A (0.5 oz/A)) of the same molecule?
A: 85 % of control

Q: And the Annual bluegrass injury (Poa annua; rating 6, 0.13 lbs ai/A (3 oz/A))?
A: 31 % of control

Q: And the Annual bluegrass injury (Poa annua; rating 7, 0.022 lbs ai/A (0.5 oz/A))?
A: 85 % of control

Q: What about the Annual bluegrass injury (Poa annua; rating 7, 0.13 lbs ai/A (3 oz/A)) of the same molecule?
A: 24 % of control

Q: What about the percentage control ([1]; 14 DAT) of the same molecule?
A: 100%

Q: And the percentage control ([1]; 23 DAT)?
A: 99%

Q: And the percentage control ([1]; 36 DAT)?
A: 99%

Q: And the percentage control ([1]; 49 DAT)?
A: 99%

Q: And the percentage control ([1]; 65 DAT)?
A: 99%

Q: What about the percentage control ([1]; 77 DAT) of the same molecule?
A: 99%

Reference: patent US11432549B2, “Carbamoyl triazolinone based herbicide combinations and method of use” (Arysta LifeScience Corporation, priority 2009, dated 2022)
